Data published in ChEMBL document CHEMBL3792365, “Dioxol and dihydrodioxin analogs of 2- and 3-phenylacetonitriles as potent anti-cancer agents with nanomolar activity against a variety of human cancer cells” (2016).

How the values were obtained:
Type in all cases: functional
[1] = Growth inhibition of human SNB75 cells at 10 uM after 48 hrs by sulforhodamine B assay; conditions: SNB-75, 48 h, values are per cent of control
U-251 = assay: Growth inhibition of human U251 cells at 10 uM after 48 hrs by sulforhodamine B assay; conditions: U-251, 48 h, values are per cent of control
[2] = Growth inhibition of human LOXIMVI cells at 10 uM after 48 hrs by sulforhodamine B assay; conditions: LOX IMVI, values are per cent of control
M14 = assay: Growth inhibition of human M14 cells at 10 uM after 48 hrs by sulforhodamine B assay; conditions: M14, 48 h, values are per cent of control
MDA-MB-435 = assay: Growth inhibition of human MDA-MB-435 cells at 10 uM after 48 hrs by sulforhodamine B assay; conditions: MDA-MB-435, 48 h, values are per cent of control
SK-MEL-2 = assay: Growth inhibition of human SK-MEL-2 cells at 10 uM after 48 hrs by sulforhodamine B assay; conditions: SK-MEL-2, 48 h, values are per cent of control
SK-MEL-28 = assay: Growth inhibition of human SK-MEL-28 cells at 10 uM after 48 hrs by sulforhodamine B assay; conditions: SK-MEL-28, 48 h, values are per cent of control
SK-MEL-5 = assay: Growth inhibition of human SK-MEL-5 cells at 10 uM after 48 hrs by sulforhodamine B assay; conditions: SK-MEL-5, 48 h, values are per cent of control
[3] = Growth inhibition of human OVCAR4 cells at 10 uM after 48 hrs by sulforhodamine B assay; conditions: OVCAR-4, 48 h, values are per cent of control
[4] = Growth inhibition of human OVCAR5 cells at 10 uM after 48 hrs by sulforhodamine B assay; conditions: OVCAR-5, 48 h, values are per cent of control
[5] = Growth inhibition of human OVCAR8 cells at 10 uM after 48 hrs by sulforhodamine B assay; conditions: OVCAR-8, 48 h, values are per cent of control
[6] = Growth inhibition of human NCI-ADR-RES cells at 10 uM after 48 hrs by sulforhodamine B assay; conditions: values are per cent of control
[7] = Growth inhibition of human SKOV3 cells at 10 uM after 48 hrs by sulforhodamine B assay; conditions: SK-OV-3, 48 h, values are per cent of control
786-0 = assay: Growth inhibition of human 786-0 cells at 10 uM after 48 hrs by sulforhodamine B assay; conditions: 786-0, 48 h, values are per cent of control
A498 = assay: Growth inhibition of human A498 cells at 10 uM after 48 hrs by sulforhodamine B assay; conditions: A498, 48 h, values are per cent of control
ACHN = assay: Growth inhibition of human ACHN cells at 10 uM after 48 hrs by sulforhodamine B assay; conditions: values are per cent of control
[8] = Growth inhibition of human Caki1 cells at 10 uM after 48 hrs by sulforhodamine B assay; conditions: CAKI-1, 48 h, values are per cent of control
[9] = Growth inhibition of human RXF393 cells at 10 uM after 48 hrs by sulforhodamine B assay; conditions: RXF 393, 48 h, values are per cent of control
SN12C = assay: Growth inhibition of human SN12C cells at 10 uM after 48 hrs by sulforhodamine B assay; conditions: values are per cent of control
[10] = Growth inhibition of human TK10 cells at 10 uM after 48 hrs by sulforhodamine B assay; conditions: TK-10, 48 h, values are per cent of control
[11] = Growth inhibition of human UO31 cells at 10 uM after 48 hrs by sulforhodamine B assay; conditions: UO-31, 48 h, values are per cent of control
[12] = Growth inhibition of human DU145 cells at 10 uM after 48 hrs by sulforhodamine B assay; conditions: DU-145, 48 h, values are per cent of control
MDA-MB-231 = assay: Growth inhibition of human MDA-MB-231 cells at 10 uM after 48 hrs by sulforhodamine B assay; conditions: MDA-MB-231, 48 h, values are per cent of control
[13] = Growth inhibition of human BT549 cells at 10 uM after 48 hrs by sulforhodamine B assay; conditions: BT-549, 48 h, values are per cent of control
MDA-MB-468 = assay: Growth inhibition of human MDA-MB-468 cells at 10 uM after 48 hrs by sulforhodamine B assay; conditions: MDA-MB-468, 48 h, values are per cent of control
K562 = assay: Growth inhibition of human K562 cells at 10 uM after 48 hrs by sulforhodamine B assay; conditions: K562, 48 h, values are per cent of control
A549 = assay: Growth inhibition of human A549/ATCC cells at 10 uM after 48 hrs by sulforhodamine B assay; conditions: A549, 48 h, values are per cent of control
[14] = Growth inhibition of human HOP62 cells at 10 uM after 48 hrs by sulforhodamine B assay; conditions: HOP-62, 48 h, values are per cent of control
NCI-H226 = assay: Growth inhibition of human NCI-H226 cells at 10 uM after 48 hrs by sulforhodamine B assay; conditions: NCI-H226, 48 h, values are per cent of control
NCI-H322M = assay: Growth inhibition of human NCI-H322M cells at 10 uM after 48 hrs by sulforhodamine B assay; conditions: values are per cent of control
NCI-H460 = assay: Growth inhibition of human NCI-H460 cells at 10 uM after 48 hrs by sulforhodamine B assay; conditions: NCI-H460, 48 h, values are per cent of control
[15] = Growth inhibition of human COLO205 cells at 10 uM after 48 hrs by sulforhodamine B assay; conditions: COLO 205, 48 h, values are per cent of control
[16] = Growth inhibition of human HCT116 cells at 10 uM after 48 hrs by sulforhodamine B assay; conditions: HCT-116, 48 h, values are per cent of control
HT-29 = assay: Growth inhibition of human HT-29 cells at 10 uM after 48 hrs by sulforhodamine B assay; conditions: HT-29, 48 h, values are per cent of control
KM12 = assay: Growth inhibition of human KM12 cells at 10 uM after 48 hrs by sulforhodamine B assay; conditions: KM12, 48 h, values are per cent of control
[17] = Growth inhibition of human SW620 cells at 10 uM after 48 hrs by sulforhodamine B assay; conditions: SW-620, 48 h, values are per cent of control
[18] = Growth inhibition of human SF268 cells at 10 uM after 48 hrs by sulforhodamine B assay; conditions: SF-268, 48 h, values are per cent of control
[19] = Growth inhibition of human SF295 cells at 10 uM after 48 hrs by sulforhodamine B assay; conditions: SF-295, 48 h, values are per cent of control
[20] = Growth inhibition of human SF539 cells at 10 uM after 48 hrs by sulforhodamine B assay; conditions: SF-539, 48 h, values are per cent of control
[21] = Growth inhibition of human SNB19 cells at 10 uM after 48 hrs by sulforhodamine B assay; conditions: SNB-19, 48 h, values are per cent of control

Structure (SMILES)	growth, % of control at 10 µM [1] [%]	growth, % of control at 10 µM (U-251) [%]	growth, % of control at 10 µM [2] [%]	growth, % of control at 10 µM (M14) [%]	growth, % of control at 10 µM (MDA-MB-435) [%]	growth, % of control at 10 µM (SK-MEL-2) [%]	growth, % of control at 10 µM (SK-MEL-28) [%]	growth, % of control at 10 µM (SK-MEL-5) [%]	growth, % of control at 10 µM [3] [%]	growth, % of control at 10 µM [4] [%]	growth, % of control at 10 µM [5] [%]	growth, % of control at 10 µM [6] [%]	growth, % of control at 10 µM [7] [%]	growth, % of control at 10 µM (786-0) [%]	growth, % of control at 10 µM (A498) [%]	growth, % of control at 10 µM (ACHN) [%]	growth, % of control at 10 µM [8] [%]	growth, % of control at 10 µM [9] [%]	growth, % of control at 10 µM (SN12C) [%]	growth, % of control at 10 µM [10] [%]	other results
COc1ccc(/C=C(\C#N)c2ccc3c(c2)OCO3)c(Cl)c1OC	73.5	95.5	77.3	72.4	15.3	80.1	91	85	98.6	92.8	100	60.5	89.2	84.8	72.5	92.3	79.3	78.3	83.5	87.6	growth, % of control at 10 µM [11]: 74.9%; growth, % of control at 10 µM [12]: 104%; growth, % of control at 10 µM (MDA-MB-231): 82.3%; growth, % of control at 10 µM [13]: 64.1%; growth, % of control at 10 µM (MDA-MB-468): 48.8%; growth, % of control at 10 µM (K562): 39.2%; growth, % of control at 10 µM (A549): 84.7%; growth, % of control at 10 µM [14]: 87.2%; growth, % of control at 10 µM (NCI-H226): 85%; growth, % of control at 10 µM (NCI-H322M): 97.8%; growth, % of control at 10 µM (NCI-H460): 92.6%; growth, % of control at 10 µM [15]: 85%; growth, % of control at 10 µM [16]: 71.4%; growth, % of control at 10 µM (HT-29): 70.3%; growth, % of control at 10 µM (KM12): 69.2%; growth, % of control at 10 µM [17]: 62.3%; growth, % of control at 10 µM [18]: 98.2%; growth, % of control at 10 µM [19]: 91.1%; growth, % of control at 10 µM [20]: 91.8%; growth, % of control at 10 µM [21]: 89.6%
COc1cc(/C=C(\C#N)c2ccc3c(c2)OCO3)cc(OC)c1OC	114	96.6	109	95	74.7	90.2	97.6	92.2	89.2	99.7	96.3	93.9	103	96.5	81.8	96	86.6	100	95.4	98.1	growth, % of control at 10 µM [11]: 67.1%; growth, % of control at 10 µM [12]: 107%; growth, % of control at 10 µM (MDA-MB-231): 88.2%; growth, % of control at 10 µM [13]: 82.1%; growth, % of control at 10 µM (MDA-MB-468): 99.6%; growth, % of control at 10 µM (K562): 80.4%; growth, % of control at 10 µM (A549): 93.6%; growth, % of control at 10 µM [14]: 92.2%; growth, % of control at 10 µM (NCI-H226): 101%; growth, % of control at 10 µM (NCI-H322M): 104%; growth, % of control at 10 µM (NCI-H460): 107%; growth, % of control at 10 µM [15]: 104%; growth, % of control at 10 µM [16]: 99.4%; growth, % of control at 10 µM (HT-29): 88.8%; growth, % of control at 10 µM (KM12): 93.8%; growth, % of control at 10 µM [17]: 98.9%; growth, % of control at 10 µM [18]: 94.4%; growth, % of control at 10 µM [19]: 96.1%; growth, % of control at 10 µM [20]: 92.4%; growth, % of control at 10 µM [21]: 93.8%
